Assay results taken from ChEMBL document CHEMBL1201862, “PubChem BioAssay data set” (2004).
Calls of active or inactive are those of the source. Cut-off read from the data, not from the text of the source, for most assays here: actives have a measured AC50 and inactives only a lower limit.

What was measured:
CAAX prenyl protease 2 = biological target: T1, CAAX prenyl protease 2 (Homo sapiens, UniProt Q9Y256); test: inhibition of Ras-converting CAAX protease Rce1 – biochemical, yeast membranes, quenched-peptide fluorescence, cherry-pick, dose response (AID 588849)
T1 sequence (Q9Y256 whole entry): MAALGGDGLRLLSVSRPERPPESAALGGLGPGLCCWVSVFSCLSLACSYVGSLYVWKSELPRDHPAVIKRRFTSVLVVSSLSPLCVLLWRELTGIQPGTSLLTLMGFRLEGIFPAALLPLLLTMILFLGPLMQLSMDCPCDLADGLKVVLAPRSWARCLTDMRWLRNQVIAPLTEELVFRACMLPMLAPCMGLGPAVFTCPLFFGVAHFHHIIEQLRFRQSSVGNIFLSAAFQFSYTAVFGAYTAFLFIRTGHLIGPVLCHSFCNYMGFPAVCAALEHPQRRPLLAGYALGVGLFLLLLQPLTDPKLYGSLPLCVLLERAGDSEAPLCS

HeLa = test: ATP-based viability loss in HeLa cells – cell-based, CellTiter-Glo luminescence, cherry-pick samples, cytotoxicity control for MITF activator project, dose response (AID 540259); assay type: functional; conditions: Homo sapiens
[1] = biological target: Voltage-gated inwardly rectifying potassium channel KCNH2 (Homo sapiens, UniProt Q12809); conditions: Potency;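 note: confirmatory quantitative high-throughput screen measuring inhibition of hERG channel activity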
Chain of Voltage-gated inwardly rectifying potassium channel KCNH2 (Q12809 whole entry): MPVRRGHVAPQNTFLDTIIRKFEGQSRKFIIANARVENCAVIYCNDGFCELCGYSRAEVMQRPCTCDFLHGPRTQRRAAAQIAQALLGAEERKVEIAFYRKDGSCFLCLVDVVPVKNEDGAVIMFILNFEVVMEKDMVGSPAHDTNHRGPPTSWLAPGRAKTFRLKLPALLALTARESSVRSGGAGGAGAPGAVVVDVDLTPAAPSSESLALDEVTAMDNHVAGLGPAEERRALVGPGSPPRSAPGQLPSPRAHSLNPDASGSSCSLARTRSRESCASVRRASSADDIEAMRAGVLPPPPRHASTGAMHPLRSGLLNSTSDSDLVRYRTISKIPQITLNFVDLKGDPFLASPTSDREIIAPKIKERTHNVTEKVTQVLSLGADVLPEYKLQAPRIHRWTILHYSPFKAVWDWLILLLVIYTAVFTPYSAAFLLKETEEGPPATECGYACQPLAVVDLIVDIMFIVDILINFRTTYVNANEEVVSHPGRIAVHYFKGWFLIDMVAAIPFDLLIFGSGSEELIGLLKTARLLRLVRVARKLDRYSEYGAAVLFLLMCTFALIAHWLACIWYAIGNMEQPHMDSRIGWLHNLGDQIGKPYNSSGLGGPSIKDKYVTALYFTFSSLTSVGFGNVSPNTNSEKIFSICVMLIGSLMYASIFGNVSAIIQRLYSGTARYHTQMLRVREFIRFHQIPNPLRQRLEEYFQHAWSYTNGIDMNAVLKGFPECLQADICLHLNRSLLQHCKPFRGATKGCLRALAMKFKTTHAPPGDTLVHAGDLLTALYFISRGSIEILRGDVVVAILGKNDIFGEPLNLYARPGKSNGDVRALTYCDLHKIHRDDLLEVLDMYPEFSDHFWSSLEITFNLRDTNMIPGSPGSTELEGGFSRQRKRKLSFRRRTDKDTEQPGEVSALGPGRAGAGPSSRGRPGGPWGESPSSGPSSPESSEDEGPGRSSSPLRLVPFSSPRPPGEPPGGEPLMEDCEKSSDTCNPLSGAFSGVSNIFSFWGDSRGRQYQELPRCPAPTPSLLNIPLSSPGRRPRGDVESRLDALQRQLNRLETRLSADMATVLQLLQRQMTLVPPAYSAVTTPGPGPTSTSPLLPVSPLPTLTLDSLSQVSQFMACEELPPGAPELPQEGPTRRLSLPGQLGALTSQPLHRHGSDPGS

SMILES | AC50 (HeLa) | AC50 [1] | other results
Cc1ccc(S(=O)(=O)Nc2ccccc2C(=O)NCC2CCCO2)cc1 (stereo not given) |  |  | AC50 (CAAX prenyl protease 2): 44.8 µM (active)
CSCc1ccc(C(=O)Nc2cc(C)cc(C)c2)cc1 | 161 µM (active) |  | 
Cc1ccccc1S(=O)(=O)NC(=Nc1nc2ccccc2s1)c1ccccc1 | 263 µM (active) |  | 
COc1ccc2c3c1O[C@H]1C(=O)CC[C@@]4(O)C(C2)N(CC2CC2)CCC314 (stereo not given in full) |  | 17.8 µM (inconclusive) | 
CN1[C@@H]2CC[C@H]1C[C@@H](OC(c1ccccc1)c1ccccc1N)C2 (stereo not given in full) [AMINOBENZTROPINE] |  | 11.2 µM (inconclusive) | 
